Source: patent publication US10759822B2 (priority 2016, dated 2020)

Tests used:
[1] = mouse, in vivo
[2] = mouse, in vivo; for MRT0-t: Kunming, iv, 1 mg/kg

| Structure (SMILES) | (AUC0-t)prodrug group/(AUC0-t)prototype drug group [1] | (AUC0-t)prodrug/(AUC0-t)prototype drug [2] | MRT0-t [2] |
| --- | --- | --- | --- |
| C/C(=C(\CCOC(=O)CCCC(=O)OC1CCC(N(C)C(=O)c2ccc3nonc3c2)CC1)SSC(C)C)N(C)C=O (stereo not drawn) [Compound 11, Pentanedioic acid anti-4-[(benzo[c][1,2,5]oxadiazole-5-carbonyl)-methyl-amino]-cyclohexyl ester 3-isopropyldisulfanyl-4-(formyl-methyl-amino)-pent-3-enyl ester] | 0.72 | 1.92 | – |
| C/C(=C(\CCOC(=O)CCCC(=O)OC1CCC(N(C)C(=O)c2ccc3nonc3c2)CC1)SSCCC(C)C)N(C=O)CC(=O)OCC1OC(O)C(O)C(O)C1O [Compound 19, Pentanedioic acid anti-4-[(benzo[c][1,2,5]oxadiazole-5-carbonyl)-methyl-amino]-cyclohexyl ester 3-isopentyldisulfanyl-4-[formyl-(D-glucos-6-yl-carbonylmethyl)-amino]-pent-3-enyl ester] | 0.73 | 1.41 | – |
| C/C(=C(\CCOC(=O)CCC(=O)OC1CCC(N(C)C(=O)c2ccc3nonc3c2)CC1)SSCc1ccccc1)N(C)C=O (stereo not drawn) [Compound 8, Succinic acid anti-4-[(benzo[c][1,2,5]oxadiazole-5-carbonyl)-methyl-amino]-cyclohexyl ester 3-benzyldisulfanyl-4-(formyl-methyl-amino)-pent-3-enyl ester] | 0.62 | 1.73 | – |
| CCSS/C(CCOC(=O)CCCC(=O)OC1CCC(N(C)C(=O)c2ccc3nonc3c2)CC1)=C(/C)N(C=O)CC(=O)OCC1OC(O)C(O)C(O)C1O [Compound 20, Pentanedioic acid anti-4-[(benzo[c][1,2,5]oxadiazole-5-carbonyl)-methyl-amino]-cyclohexyl ester 3-ethyldisulfanyl-4-[formyl-(D-glucos-6-yl-carbonylmethyl)-amino]-pent-3-enyl ester] | 0.82 | 1.65 | – |
| CCCCSS/C(CCOC(=O)CCC(=O)OC1CCC(N(C)C(=O)c2ccc3nonc3c2)CC1)=C(/C)N(C)C=O (stereo not drawn) [Compound 4, Succinic acid anti-4-[(benzo[c][1,2,5]oxadiazole-5-carbonyl)-methyl-amino]-cyclohexyl ester 3-butyldisulfanyl-4-(formyl-methyl-amino)-pent-3-enyl ester] | 0.68 | 1.56 | – |
| CCCCCCSS/C(CCOC(=O)CCCC(=O)OC1CCC(N(C)C(=O)c2ccc3nonc3c2)CC1)=C(/C)N(C=O)CC(=O)OCC1OC(O)C(O)C(O)C1O [Compound 21, Pentanedioic acid anti-4-[(benzo[c][1,2,5]oxadiazole-5-carbonyl)-methyl-amino]-cyclohexyl ester 3-hexyldisulfanyl-4-[formyl-(D-glucos-6-yl-carbonylmethyl)-amino]-pent-3-enyl ester] | – | 1.68 | 1.91 h |
| CCSS/C(CCOC(=O)CCC(=O)OC1CCC(N(C)C(=O)c2ccc3nonc3c2)CC1)=C(/C)N(C)C=O (stereo not drawn) [Compound 1, Succinic acid anti-4-[(benzo[c][1,2,5]oxadiazole-5-carbonyl)-methyl-amino]-cyclohexyl ester 3-ethyldisulfanyl-4-(formyl-methyl-amino)-pent-3-enyl ester] | 0.48 | 1.55 | – |
| CCSS/C(CCOC(=O)CCCC(=O)OC1CCC(N(C)C(=O)c2ccc3nonc3c2)CC1)=C(/C)N(C=O)CC(=O)OCC(O)C1OC(=O)C(O)=C1O (stereo not drawn) [Compound 22, Pentanedioic acid anti-4-[(benzo[c][1,2,5]oxadiazole-5-carbonyl)-methyl-amino]-cyclohexyl ester 3-ethyldisulfanyl-4-{[2-(3,4-dihydroxy-5-oxo-2,5-dihydro-furan-2-yl)-2-hydroxy-ethoxycarbonylmethyl]-formyl-amino}-pent-3-enyl ester] | – | 1.82 | 2.00 h |
